According to ChEMBL document CHEMBL5244279, “Perspectives on SARS-CoV-2 Main Protease Inhibitors” (J Med Chem, 2021):

What was measured:
[1] = biological target: T1, Replicase polyprotein 1ab (Severe acute respiratory syndrome coronavirus 2, UniProt P0DTD1); assay: Inhibition of SARS CoV-2 Main protease using MCA-AVLQSGFR-Lys(DNP)-Lys-NH2 peptide as substrate by fluorescence based analysis
[2] = biological target: T1, Replicase polyprotein 1ab; assay: Inhibition of SARS CoV-2 Main protease incubated for 10 min by FRET assay
SARS-CoV-2 [3] = assay type: functional, organism-based, Vero E6; conditions: Severe acute respiratory syndrome coronavirus 2, strain 107, Vero C1008
[4] = Inhibition of SARS CoV N-terminal his-tagged Main protease using Dabcyl-KTSAVLQSGFRKME-Edan peptide as substrate by fluorescence based analysis; design: species or system Severe acute respiratory syndrome-related coronavirus
[5] = Cytotoxicity against mouse L929 cells assessed as reduction of cell viability; assay type: toxicity, cell-based
[6] = Cytotoxicity against cat CRFK cells assessed as reduction of cell viability; assay type: toxicity, cell-based, Felis catus
[7] = Cytotoxicity against human Huh-7 cells assessed as reduction of cell viability; assay type: toxicity, cell-based
SARS-CoV-2 [8] = assay type: functional, organism-based, Vero E6; conditions: Severe acute respiratory syndrome coronavirus 2, Vero C1008
[9] = Binding affinity to SARS CoV N-terminal his-tagged Main protease using Dabcyl-KTSAVLQSGFRKME-Edan peptide as substrate by fluorescence based analysis; design: species or system Severe acute respiratory syndrome-related coronavirus

Row | SMILES | IC50 [2] [nM] | EC50 (SARS-CoV-2 [3]) [nM] | other results
1 | CCCCNC(=O)c1ccc(-n2sc3ccccc3c2=O)cc1 | – | – | IC50 [1]: 910 nM
2 | COc1ccc(OC(C)C(=O)N2C[C@@H]3CCC[C@@H]3[C@H]2C(=O)N[C@H](C=O)C[C@@H]2CCNC2=O)cc1 (some centres not stated) | 69.1 | – | –
3 | CN(C)c1ccc(CCC(=O)N2C[C@@H]3CCC[C@@H]3[C@H]2C(=O)N[C@H](C=O)C[C@@H]2CCNC2=O)cc1 | 378 | – | –
4 | O=C[C@H](C[C@@H]1CCNC1=O)NC(=O)[C@@H]1[C@H]2CCC[C@H]2CN1C(=O)COc1ccc(Cl)cc1 | – | 670 | –
5 | CC1(C)[C@@H]2[C@@H](C(=O)N[C@H](C=O)C[C@@H]3CCNC3=O)N(C(=O)CCc3cccc(F)c3)C[C@@H]21 | 16.5 | 2230 | –
6 | O=C[C@H](C[C@@H]1CCNC1=O)NC(=O)[C@@H]1[C@H]2CCC[C@H]2CN1C(=O)CCc1cccc(F)c1 | – | 2970 | –
7 | CC1(C)[C@@H]2[C@@H](C(=O)N[C@H](C=O)C[C@@H]3CCNC3=O)N(C(=O)COc3ccc(Cl)cc3)C[C@@H]21 | 19 | 530 | –
8 | CC(C)[C@H](NC(=O)[C@H](C)NC(=O)OCc1ccccc1)C(=O)N[C@@H](Cc1c[nH]c2ccccc12)[C@@H](O)[C@H](O)[C@@H](Cc1c[nH]c2ccccc12)NC(=O)[C@@H](NC(=O)[C@H](C)NC(=O)OCc1ccccc1)C(C)C | – | – | Ki [4]: 73 nM
9 | CCCC1CCC(OC(=O)N[C@@H](CC(C)C)C(=O)N[C@H](C=O)C[C@@H]2CCNC2=O)CC1 (some centres not stated) | – | – | CC50 [5]: > 100000 nM; CC50 [6]: > 100000 nM; CC50 [7]: > 100000 nM
10 | O=c1c2ccccc2sn1CCCCc1ccccc1 | – | – | IC50 [1]: 410 nM
11 | O=C[C@H](C[C@@H]1CCNC1=O)NC(=O)[C@@H]1[C@H]2CCC[C@H]2CN1C(=O)CCc1ccc(F)c(F)c1 | 17.4 | 30500 | –
12 | O=C[C@H](C[C@@H]1CCNC1=O)NC(=O)[C@@H]1[C@H]2CCC[C@H]2CN1C(=O)c1cc2ccccc2[nH]1 | 153 | – | –
13 | COc1ccc(OCC(=O)N2C[C@@H]3CCC[C@@H]3[C@H]2C(=O)N[C@H](C=O)C[C@@H]2CCNC2=O)cc1 | 36.2 | 24700 | –
14 | CCCn1sc2ccccc2c1=O | – | – | IC50 [1]: 730 nM
15 | O=C[C@H](C[C@@H]1CCNC1=O)NC(=O)[C@H](Cc1ccccc1)NC(=O)/C=C/c1cccc(Br)c1 | – | – | IC50 (SARS-CoV-2 [8]): 700 nM
16 | COc1ccc(/C=C/C(=O)N2C[C@@H]3CCC[C@@H]3[C@H]2C(=O)N[C@H](C=O)C[C@@H]2CCNC2=O)c(OC)c1 | 196 | – | –
17 | O=C[C@H](C[C@@H]1CCNC1=O)NC(=O)[C@@H]1[C@H]2CCC[C@H]2CN1C(=O)COc1ccc2c(c1)OCCO2 | 93.5 | – | –
18 | CC1(C)[C@@H]2[C@@H](C(=O)N[C@H](C=O)C[C@@H]3CCNC3=O)N(C(=O)COc3ccc(Br)cc3Cl)C[C@@H]21 | 13.3 | 1180 | –
19 | O=c1c2ccccc2[se]n1-c1cccc([N+](=O)[O-])c1 | – | – | IC50 [1]: 150 nM

Row | SMILES | IC50 [2] [nM] | EC50 (SARS-CoV-2 [3]) [nM] | other results
20 | CN(C)c1ccc(C(=O)On2nnc3ccccc32)cc1 | – | – | Ki [9]: 17.4 nM
21 | CC1(C)[C@@H]2[C@@H](C(=O)N[C@H](C=O)C[C@@H]3CCNC3=O)N(C(=O)c3ccc4ccccc4c3)C[C@@H]21 | 453 | – | –
22 | CN(C)c1ccc(/C=C/C(=O)N2C[C@@H]3CCC[C@@H]3[C@H]2C(=O)N[C@H](C=O)C[C@@H]2CCNC2=O)cc1 | 375 | – | –
23 | CCCCC1CCC(OC(=O)N[C@@H](CC(C)C)C(=O)N[C@H](C=O)C[C@@H]2CCNC2=O)CC1 (some centres not stated) | – | – | CC50 [5]: 63300 nM; IC50 (SARS-CoV-2 [8]): 900 nM; CC50 [6]: 63300 nM; CC50 [7]: 63300 nM
24 | CC1(C)[C@@H]2[C@@H](C(=O)N[C@H](C=O)C[C@@H]3CCNC3=O)N(C(=O)COc3cccc(C(F)(F)F)c3)C[C@@H]21 | 43.3 | 17000 | –
25 | COc1ccc(OCC(=O)N2C[C@H]3[C@@H]([C@H]2C(=O)N[C@H](C=O)C[C@@H]2CCNC2=O)C3(C)C)cc1F | 37.2 | 4680 | –
26 | O=C[C@H](C[C@@H]1CCNC1=O)NC(=O)[C@@H]1[C@H]2CCC[C@H]2CN1C(=O)/C=C/c1ccccc1 | 526 | – | –
27 | CC1(C)[C@@H]2[C@@H](C(=O)N[C@H](C=O)C[C@@H]3CCNC3=O)N(C(=O)COc3ccc(Cl)c(Cl)c3)C[C@@H]21 | 12.4 | 2080 | –
28 | CC1(C)[C@@H]2[C@@H](C(=O)N[C@H](C=O)C[C@@H]3CCNC3=O)N(C(=O)COc3ccc4ccccc4c3)C[C@@H]21 | 52.1 | – | –
29 | CC1(C)[C@@H]2[C@@H](C(=O)N[C@H](C=O)C[C@@H]3CCNC3=O)N(C(=O)COc3ccc(Br)c(Cl)c3)C[C@@H]21 | 50.8 | – | –
30 | Cc1cc(Cl)ccc1OCC(=O)N1C[C@@H]2CCC[C@@H]2[C@H]1C(=O)N[C@H](C=O)C[C@@H]1CCNC1=O | 19.7 | 1500 | –
31 | O=C(On1nnc2ccccc21)c1cc2cc(F)ccc2[nH]1 | – | – | Ki [9]: 13.8 nM
32 | CCCC1CCC(OC(=O)N[C@@H](CC(C)C)C(=O)N[C@@H](C[C@@H]2CCNC2=O)C(O)S(=O)(=O)O)CC1 (some centres not stated) | – | – | CC50 [5]: > 100000 nM; CC50 [6]: > 100000 nM; CC50 [7]: > 100000 nM
33 | CC1(C)[C@@H]2[C@@H](C(=O)N[C@H](C=O)C[C@@H]3CCNC3=O)N(C(=O)COc3ccc(Cl)cc3Cl)C[C@@H]21 | 13 | 660 | –
34 | O=C[C@H](C[C@@H]1CCNC1=O)NC(=O)[C@@H]1[C@H]2CCC[C@H]2CN1C(=O)c1cc2ccccn2n1 | 299 | – | –
35 | O=C[C@H](C[C@@H]1CCNC1=O)NC(=O)[C@@H]1[C@H]2CCC[C@H]2CN1C(=O)COc1ccc(Cl)cc1F | 34.7 | 1650 | –
36 | Cc1cc(-c2ccc(N/N=C3\C=Cc4c(S(=O)(=O)O)cc(S(=O)(=O)O)c(N)c4C3=O)c(C)c2)ccc1N/N=C1\C=Cc2c(S(=O)(=O)O)cc(S(=O)(=O)O)c(N)c2C1=O | – | – | IC50 [4]: 200 nM; Ki [4]: 73 nM
37 | O=c1c2ccccc2sn1-c1ccc(Cl)cc1 | – | – | IC50 [1]: 390 nM
38 | O=c1c2ccccc2sn1Cc1ccccc1 | – | – | IC50 [1]: 170 nM
